One experiment has as its target MMP-2 (Homo sapiens, UniProt P08253). Kind of experiment: biochemical.
A further experiment has as its target T1, MMP-9 (Homo sapiens, UniProt P14780).
T1 construct: made in house
The experiment can be described thus: P218 quenched fluorescence assay (MMP Microfluorometric Profiling Assay), MMP-9. In kind it is biochemical. To be noted: 6 µM P218 substrate, 25 min at 37°C, pH 6.5; read-out: MMP-9 Fluorogenic IC50. The source says:
(§1) The P218 quenched fluorescence assay (Microfluorometric Profiling Assay) is a modification of that originally described by Knight, et al.. FEBS Lett. 296, 263 (1992) for a related substance and a variety of matrix metalloproteinases (MMPs) in cuvettes. The assay was run with each invention compound and the three MMPs, MMP-3, MMP-9 and MMP-2, analyzed in parallel, adapted as follows for a 96-well microtiter plate and a Hamilton AT® workstation. P218 Fluorogenic Substrate: P218 is a synthetic substrate containing a 4-acetyl-7-methoxycoumarin ( MCA) group in the N-terminal position and a 3-[2, 4-dinitrophenyl]-L-2,3-diaminopropionyl (DPA) group internally. This is a modification of a peptide reported by Knight (1992) that was used as a substrate for matrix metalloproteinases. Once the P218 peptide is cleaved (putative clip site at the Ala-Leu bond), the fluorescence of the MCA group can be detected on a fluorometer with excitation at 328 nm and emission at 393 nm. P218 is currently being produced BACHEM exclusively for Bayer. P218 has the structure: [formula]
Recombinant Human Pro-MMP-9: Human pro-gelatinase B (pro-MMP-9) derived from U937 cDNA as described by Wilhelm, et al. J. Biol. Chem. 264, 17213 (1989) was expressed as the full-length form using a baculovirus protein expression system. The pro-enzyme was purified using methods previously described by Hibbs, et al. J. Biol. Chem. 260, 2493 (1984).
Activation of Pro-MMP-9: […] 20 µg/mL in 50 mM Tris at pH 7.4, 10mM CaCl2, 150 mM NaCl, and 0.005% Brij-35 (MMP-9 activation buffer) was activated by incubation with 0.5 mM p-aminophenylmercuric acetate (APMA) for 3.5 h at 37°C. The enzyme was dialyzed against the same buffer to revmove the APMA.
(§2) Hamiltion Microlab AT Plus: The MMP-Profiling Assay is performed robotically on a Hamilton MicroLab AT Plus®. […]
(§3) Millipore Cytofluor II. Following incubation, the plate was read on a Cytofluor II fluorometric plate reader with excitation at 340 nm and emission at 395 nm with the gain set at 80. […]

In the next experiment the target is T2, MMP-3 (Homo sapiens, UniProt P08254).
T2 construct: made in house; host or cells: CHO cells
T2 sequence (P08254 100-477): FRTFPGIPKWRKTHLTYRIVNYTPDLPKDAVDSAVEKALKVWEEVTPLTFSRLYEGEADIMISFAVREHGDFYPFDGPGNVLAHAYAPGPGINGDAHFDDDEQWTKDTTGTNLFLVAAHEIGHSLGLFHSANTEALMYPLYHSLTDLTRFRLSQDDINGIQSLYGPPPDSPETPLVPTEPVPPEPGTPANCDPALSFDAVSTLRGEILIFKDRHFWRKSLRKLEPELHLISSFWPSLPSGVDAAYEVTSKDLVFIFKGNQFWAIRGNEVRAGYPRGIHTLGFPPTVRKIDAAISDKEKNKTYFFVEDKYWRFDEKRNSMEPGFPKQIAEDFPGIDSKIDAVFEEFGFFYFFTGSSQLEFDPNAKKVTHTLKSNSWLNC
The experiment can be described thus: P218 quenched fluorescence assay (MMP Microfluorometric Profiling Assay), MMP-3. It is filed as biochemical. The note with it: 6 µM P218 substrate, 25 min at 37°C, pH 6.5; read-out: MMP-3 Fluorogenic IC50.
Description: as §1
Recombinant Human CHO Pro-MMP-3: Human CHO pro-stromelysin-257 (pro-MMP-3) was expressed and purified as described by Housley, et al.. J. Biol. Chem. 268, 4481 (1993).
Activation of Pro-MMP-3: Pro-MMP-3 at 1.72 µM (100 µg/mL) in 5 mM Tris at pH 7.5, 5 mM CaCl2, 25 mM NaCl, and 0.005% Brij-35 (MMP-3 activation buffer) was activated by incubation with TPCK (N-tosyl-(L)-phenylalanine chloromethyl ketone) trypsin (1:100 w/w to pro-MMP-3) at 25 °C for 30 min. The reaction was stopped by addition of soybean trypsin inhibitor (SBTI; 5:1 w/w to trypsin concentration). This activation protocol results in the formation of 45 kDa active MMP-3, which still contains the C-terminal portion of the enzyme.
as §2, §3

T1 sequence (P14780 107-707 limits assumed): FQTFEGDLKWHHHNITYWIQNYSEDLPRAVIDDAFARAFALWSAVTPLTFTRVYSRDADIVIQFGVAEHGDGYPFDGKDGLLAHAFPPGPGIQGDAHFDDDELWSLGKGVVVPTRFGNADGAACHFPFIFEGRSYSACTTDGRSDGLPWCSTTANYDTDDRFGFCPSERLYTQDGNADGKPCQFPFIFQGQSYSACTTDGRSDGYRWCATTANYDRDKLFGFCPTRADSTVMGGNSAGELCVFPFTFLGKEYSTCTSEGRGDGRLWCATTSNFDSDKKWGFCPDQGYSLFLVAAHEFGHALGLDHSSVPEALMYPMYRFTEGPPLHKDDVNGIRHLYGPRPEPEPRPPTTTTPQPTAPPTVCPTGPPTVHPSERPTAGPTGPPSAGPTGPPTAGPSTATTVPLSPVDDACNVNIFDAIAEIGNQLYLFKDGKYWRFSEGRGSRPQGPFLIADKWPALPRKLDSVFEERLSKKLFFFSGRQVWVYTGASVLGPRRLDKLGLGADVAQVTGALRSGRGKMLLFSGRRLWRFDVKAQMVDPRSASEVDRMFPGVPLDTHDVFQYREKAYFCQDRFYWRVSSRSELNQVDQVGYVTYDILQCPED
Sequence of MMP-2 (P08253 110-660): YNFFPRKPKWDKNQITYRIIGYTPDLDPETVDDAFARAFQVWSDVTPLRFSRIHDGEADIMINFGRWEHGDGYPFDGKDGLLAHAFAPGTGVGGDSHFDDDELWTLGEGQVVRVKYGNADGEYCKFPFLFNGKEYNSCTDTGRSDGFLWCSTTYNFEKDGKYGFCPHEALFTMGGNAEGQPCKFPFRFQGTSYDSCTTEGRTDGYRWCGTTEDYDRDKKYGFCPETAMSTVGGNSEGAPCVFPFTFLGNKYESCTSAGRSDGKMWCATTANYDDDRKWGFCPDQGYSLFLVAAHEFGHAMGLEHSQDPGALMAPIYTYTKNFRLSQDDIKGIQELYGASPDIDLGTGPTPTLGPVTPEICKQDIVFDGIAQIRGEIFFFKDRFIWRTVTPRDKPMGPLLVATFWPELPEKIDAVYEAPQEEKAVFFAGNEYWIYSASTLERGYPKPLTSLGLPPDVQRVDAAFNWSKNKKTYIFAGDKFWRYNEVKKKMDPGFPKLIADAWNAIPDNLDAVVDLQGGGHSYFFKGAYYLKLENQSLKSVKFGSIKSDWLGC

Usually IC50 stands for the concentration that inhibits the measured activity by half. For `O=C(CC(CCn1nnc2ccccc2c1=O)C(=O)O)c1ccc(-c2ccc(Cl)cc2)cc1` (stereo not drawn) [Example 19, α-[2-(4'-chloro[1,1'-biphenyl]-4-yl)-2-oxoethyl]-4-oxo-1,2,3,-Benzotriazine-3(4H)-butanoic acid], the values for the concentration for half-maximal inhibition (IC50) at MMP-2, at MMP-9 and at MMP-3 were 2.4 nM, 4.7 nM and 47 nM, respectively.
The like results for `O=C(c1ccc(-c2ccc(Cl)cc2)cc1)C1CCC(Cn2nnc3ccccc3c2=O)C1C(=O)O` (stereo not drawn) [Example 1, 2-[(4'-chloro[1,1'-biphenyl]-4-yl)carbonyl]-5-[(4-oxo-1,2,3-benzotriazin-3(4H)-yl)methyl]-cyclopentanecarboxylic acid] were, in that order, 0.39 nM, 0.34 nM and 1.7 nM.
The like results for `CC1=NCC(=O)N(CCC(CC(=O)c2ccc(-c3ccc(Cl)cc3)cc2)C(=O)O)c2ccccc21` (stereo not drawn) [Example 22, α-[2-(4'-chloro[1,1'-biphenyl]-4-yl)-2-oxoethyl]-2,3-dihydro-5-methyl-2-oxo-1H-1,4-benzodiazepine-1-butanoic acid] were, in that order, 24 nM, 120 nM and 140 nM.

Source of the values: patent EP0923530B1, “INHIBITION OF MATRIX METALLOPROTEASES BY SUBSTITUTED BIARYL OXOBUTYRIC ACIDS” (Bayer Corporation, priority 1996, dated 1997).
